pIC50: −log10 of the molar value.

Here are results for 7 compounds from BindingDB's records for doi:10.1101/2020.12.16.422677 (Fraunhofer Institute for Translational Medicine and …, 2020).

The target in the assay is Replicase polyprotein 1ab (Severe acute respiratory syndrome coronavirus 2, UniProt P0DTD1). Kind of assay: Hit profiling assay with DTT.

In general, pIC50 refers to −log10 of the IC50, conventionally taken in molar units. High values mean a low IC50, low ones a high IC50. `CN1CCN(C(c2ccc(C(F)(F)F)cc2)c2ccc3cccnc3c2O)CC1` (configuration not stated) gave a pIC50 of 5.87. `Cn1sc(=O)n(Cc2ccccc2)c1=O` [4-Benzyl-2-methyl-1,2,4-thiadiazolidine-3,5-dione] showed a pIC50 of 6.85. On to `O=C1C=Cc2cc(Br)ccc2C1=O` [Bonaphthone], for which the pIC50 was 7.05. In the case of `CCOC(=O)Cc1ccc(-c2ccccc2)cc1` [Felbinac ethyl], the pIC50 is 7.10. In the case of `Cc1c(-c2cnccn2)ssc1=S` [OLTIPRAZ], the pIC50 is 6.96. `N#CSc1cc(SC#N)c(N)nc1N` [PR-619] showed a pIC50 of 5.36.

Compound `COC(=O)CC[C@H](NC(=O)[C@H](CC(=O)OC)NC(=O)OCc1ccccc1)C(=O)N[C@H](C(=O)N[C@@H](CC(=O)OC)C(=O)CF)C(C)C` [US9345789, Z-DEVD-FMK] had a pIC50 of 8.00.
